Reference: patent publication US20240182445A1 (ONO PHARMACEUTICAL CO., LTD., priority 2019, published 2024)

Biological target: T1, human TREK-1 (Homo sapiens, UniProt O95069)
T1 construct: expressed in transfected cells
T1 sequence (O95069 1-426): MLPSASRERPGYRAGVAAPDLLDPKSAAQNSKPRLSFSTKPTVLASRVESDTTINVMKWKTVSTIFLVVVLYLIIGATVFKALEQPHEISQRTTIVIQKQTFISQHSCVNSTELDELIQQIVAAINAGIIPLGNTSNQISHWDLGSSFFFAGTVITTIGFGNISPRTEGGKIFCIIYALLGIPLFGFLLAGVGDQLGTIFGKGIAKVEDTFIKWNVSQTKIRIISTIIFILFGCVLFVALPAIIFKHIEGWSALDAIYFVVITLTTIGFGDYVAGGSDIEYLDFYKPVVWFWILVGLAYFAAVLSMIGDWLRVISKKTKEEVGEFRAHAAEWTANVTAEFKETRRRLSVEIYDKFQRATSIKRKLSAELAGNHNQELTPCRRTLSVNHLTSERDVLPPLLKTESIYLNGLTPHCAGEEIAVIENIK
Assay: TREK-1 Thallium (Tl+) flux assay, Method 1
Type: cell-based
Settings: TREK-1 Thallium (Tl+) flux assay; values without footnote *12 are Method 1
Experimental: The term “thallium flux assay” herein refers to a fluorescence-based assay used to monitor the activity of TREK channels. Thallium is a congener of potassium that readily fluxes through the pore of TREK channels. Thallium flux is measured using a commercially available, thallium-sensitive fluorescent dye called Thallos. The detail method is described below.
CHO-K1 cells stably expressing human TREK-1 were plated in 384-well plates, cultured overnight, loaded with Thallos dye the following day. Test compounds or control compound (tert-butyl (3-((4-(benzyloxy)-2-methylphenyl)carbamoyl)-4-chlorophenyl)carbamate) or 0.3% DMSO (vehicle control) which were prepared on separate plates were added to the cell plates and incubated for 10 min, and then the cells were treated with thallium stimulus buffer to initiate thallium flux. To measure the efficacy and potency of test compounds, the change in fluorescence intensity (ΔRatio) and % inhibition were calculated using the following equations:
ΔRatio=(fluorescence intensity at 25 seconds after thallium addition)/(average of fluorescent intensity before thallium addition)

IC50 [nM]	Structure (SMILES)
70	Cc1cc(C#Cc2ccccc2)cnc1NC(=O)c1c(Cl)cnn1-c1ccc2c(c1)OCCO2 [Compound 21, 4-chloro-1-(2,3-dihydrobenzo[b][1,4]dioxin-6-yl)-N-(3-methyl-5-(phenylethynyl)pyridin-2-yl)-1H-pyrazole-5-carboxamide]
80	Cc1cc(C#Cc2ccccc2)cnc1NC(=O)c1c(Cl)cnn1-c1ccc2c(cnn2C)c1 [Compound 22, 4-chloro-1-(1-methyl-1H-indazol-5-yl)-N-(3-methyl-5-(phenylethynyl)pyridin-2-yl)-1H-pyrazole-5-carboxamide]
80	O=C(Nc1ncc(C#Cc2ccc(F)cc2)cc1F)c1c(Cl)cnn1[C@H]1CC[C@@H](NC(=O)C2COCCO2)CC1 (stereo partly drawn) [Compound 23, 1-(cis-4-(1,4-dioxane-2-carboxamido)cyclohexyl)-4-chloro-N-(3-fluoro-5-((4-fluorophenyl)ethynyl)pyridin-2-yl)-1H-pyrazole-5-carboxamide]
90	CC(=O)N1CCC(n2ncc(Cl)c2C(=O)Nc2ncc(C#Cc3cccc(F)c3)cc2F)CC1 [Compound 25, 1-(1-acetylpiperidin-4-yl)-4-chloro-N-(3-fluoro-5-((3-fluorophenyl)ethynyl)pyridin-2-yl)-1H-pyrazole-5-carboxamide]
90	CC(=O)N1CCCC(n2ncc(Cl)c2C(=O)Nc2ncc(C#Cc3ccccc3)cc2F)CC1 (stereo not drawn) [Compound 26]
90	CC(=O)N1CCOC(Cn2ncc(Cl)c2C(=O)Nc2ncc(C#Cc3ccccc3)cc2F)C1 (stereo not drawn) [Compound 27, 1-((4-acetylmorpholin-2-yl)methyl)-4-chloro-N-(3-fluoro-5-(phenylethynyl)pyridin-2-yl)-1H-pyrazole-5-carboxamide]
90	Cc1cc(C#Cc2ccccc2)cnc1NC(=O)c1c(Cl)cnn1C(C)C1CCN(C(=O)C(C)C)CC1 (stereo not drawn) [Compound 28, 4-chloro-1-(1-(1-isobutyrylpiperidin-4-yl)ethyl)-N-(3-methyl-5-(phenylethynyl)pyridin-2-yl)-1H-pyrazole-5-carboxamide]
100	CC(=O)N1CCC(n2ncc(Cl)c2C(=O)Nc2ncc(C#Cc3ccccc3)cc2C)C(F)C1 (stereo not drawn) [Compound 29, 1-(1-acetyl-3-fluoropiperidin-4-yl)-4-chloro-N-(3-methyl-5-(phenylethynyl)pyridin-2-yl)-1H-pyrazole-5-carboxamide]
100	CC(=O)N1CC[C@@H](n2ncc(Cl)c2C(=O)Nc2ncc(C#Cc3ccccc3)cc2C)[C@H](F)C1 [Compound 30, […]]
100	CC(=O)N1CCC(C(C)n2ncc(Cl)c2C(=O)Nc2ncc(C#Cc3ccccc3)cc2C)CC1 (stereo not drawn) [Compound 32, 1-(1-(1-acetylpiperidin-4-yl)ethyl)-4-chloro-N-(3-methyl-5-(phenylethynyl)pyridin-2-yl)-1H-pyrazole-5-carboxamide]
110	CC(=O)N1CCC(n2ncc(Cl)c2C(=O)Nc2c(F)cc(C#Cc3ccccc3)cc2F)CC1 [Compound 33, 1-(1-acetylpiperidin-4-yl)-4-chloro-N-(2,6-difluoro-4-(phenylethynyl)phenyl)-1H-pyrazole-5-carboxamide]
110	CCC(=O)N1CCC(n2ncc(Cl)c2C(=O)Nc2ncc(C#Cc3ccccc3)cc2F)CC1 [Compound 34, 4-chloro-N-(3-fluoro-5-(phenylethynyl)pyridin-2-yl)-1-(1-propionylpiperidin-4-yl)-1H-pyrazole-5-carboxamide]
110	CC(=O)N1CCC(C(C)n2ncc(Cl)c2C(=O)Nc2ncc(C#Cc3ccccc3)cc2F)CC1 (stereo not drawn) [Compound 35, 1-(1-(1-acetylpiperidin-4-yl)ethyl)-4-chloro-N-(3-fluoro-5-(phenylethynyl)pyridin-2-yl)-1H-pyrazole-5-carboxamide]
110	Cc1cc(C#Cc2cccs2)cnc1NC(=O)c1c(Cl)cnn1C1CC2(C1)CN(C(=O)C1CC1)C2 [Compound 36, 4-chloro-1-(2-(cyclopropanecarbonyl)-2-azaspiro[3.3]heptan-6-yl)-N-(3-methyl-5-(thiophen-2-ylethynyl)pyridin-2-yl)-1H-pyrazole 5-carboxamide]
120	CC(=O)N1CCC(n2ncc(Cl)c2C(=O)Nc2c(C)cc(C#Cc3ccccc3)cc2F)CC1 [Compound 37, 1-(1-acetylpiperidin-4-yl)-4-chloro-N-(2-fluoro-6-methyl-4-(phenylethynyl)phenyl)-1H-pyrazole-5-carboxamide]
120	Cc1cc(C#Cc2ccc(F)cc2)cnc1NC(=O)c1c(Cl)cnn1[C@H]1CC[C@@H](NC(=O)C2COCCO2)CC1 (stereo partly drawn) [Compound 38, 1-(cis-4-(1,4-dioxane-2-carboxamido)cyclohexyl)-4-chloro-N-(5-((4-fluorophenyl)ethynyl)-3-methylpyridin-2-yl)-1H-pyrazole-5-carboxamide]
120	CC(=O)N1CCC(C#N)(Cn2ncc(Cl)c2C(=O)Nc2ncc(C#Cc3ccccc3)cc2F)CC1 [Compound 39, 1-((1-acetyl-4-cyanopiperidin-4-yl)methyl)-4-chloro-N-(3-fluoro-5-(phenylethynyl)pyridin-2-yl)-1H-pyrazole-5-carboxamide]
130	CC(=O)N1CC(n2ncc(Cl)c2C(=O)Nc2ncc(C#Cc3ccccc3)cc2F)C1 [Compound 40, 1-(1-acetylazetidin-3-yl)-4-chloro-N-(3-fluoro-5-(phenylethynyl)pyridin-2-yl)-1H-pyrazole-5-carboxamide]
130	CCC(=O)N1CCC(n2ncc(Cl)c2C(=O)Nc2ncc(C#Cc3ccccc3)cc2C)CC1 [Compound 41, 4-chloro-N-(3-methyl-5-(phenylethynyl)pyridin-2-yl)-1-(1-propionylpiperidin-4-yl)-1H-pyrazole-5-carboxamide]
130	CC(=O)N1CCC(Cn2ncc(Cl)c2C(=O)Nc2ncc(C#Cc3ccccc3)cc2F)CC1 [Compound 42, 1-((1-acetylpiperidin-4-yl)methyl)-4-chloro-N-(3-fluoro-5-(phenylethynyl)pyridin-2-yl)-1H-pyrazole-5-carboxamide]
130	O=C(Nc1ncc(C#Cc2ccccc2)cc1F)c1c(Cl)cnn1CC1CCN(C(=O)C2CC2)C1 (stereo not drawn) [Compound 43, 4-chloro-1-((1-(cyclopropanecarbonyl)pyrrolidin-3-yl)methyl)-N-(3-fluoro-5-(phenylethynyl)pyridin-2-yl)-1H-pyrazole-5-carboxamide]
130	CC(=O)N1CCC(Cn2ncc(Cl)c2C(=O)Nc2ncc(C#Cc3ccccc3)cc2F)C1 (stereo not drawn) [Compound 44, 1-((1-acetylpyrrolidin-3-yl)methyl)-4-chloro-N-(3-fluoro-5-(phenylethynyl)pyridin-2-yl)-1H-pyrazole-5-carboxamide]
130	CC(C)C(=O)N[C@H]1CC[C@@H](n2ncc(Cl)c2C(=O)Nc2ncc(C#Cc3ccc(F)cc3)cc2F)CC1 [Compound 45, 4-chloro-N-(3-fluoro-5-((4-fluorophenyl)ethynyl)pyridin-2-yl)-1-(cis-4-isobutyramidocyclohexyl)-1H-pyrazole-5-carboxamide]
130	Cc1cc(C#Cc2cccs2)cnc1NC(=O)c1c(Cl)cnn1C1CC2(C1)CN(C(=O)C(C)C)C2 [Compound 46, 4-chloro-1-(2-isobutyryl-2-azaspiro[3.3]heptan-6-yl)-N-(3-methyl-5-(thiophen-2-ylethynyl)pyridin-2-yl)-1H-pyrazole-5-carboxamide]
